# In PubChem BioAssay AID2060904 (Molecular Pharmacology Branch, DTP, NCI, 2025):
# Test system: 349418-098-R-PDC complex spheroid viability
# Assay: Anticancer human tumor 349418-098-R-PDC patient-derived lung adenocarcinoma cell line growth inhibition [RAS]
# Conditions: for IC50: curve of first compound; for viability, T/C: stronger effect = lower value
# How it was run: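 Tumour cells grown as complex spheroids with HUVEC endothelial cells and mesenchymal stem cells, treated with RAS pathway inhibitor combinations. Each agent spans half-log steps from near clinical Cmax, or 10 microM where Cmax is unknown.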
# [1] = second compound 0.000949 µM, first compound 0.0316 µM
# [2] = second compound 0.000949 µM, first compound 0.1 µM
# [3] = second compound 0.000949 µM, first compound 0.316 µM
# [4] = second compound 0.000949 µM, first compound 1 µM
# [5] = second compound 0.000949 µM, first compound 3.16 µM
# [6] = second compound 0.000949 µM, first compound 10 µM
# [7] = second compound 0.003 µM, first compound 0.0316 µM
# [8] = second compound 0.003 µM, first compound 0.1 µM
# [9] = second compound 0.003 µM, first compound 0.316 µM
# [10] = second compound 0.003 µM, first compound 1 µM
# [11] = second compound 0.003 µM, first compound 3.16 µM
# [12] = second compound 0.003 µM, first compound 10 µM
# [13] = second compound 0.00949 µM, first compound 0.0316 µM
# [14] = second compound 0.00949 µM, first compound 0.1 µM
# [15] = second compound 0.00949 µM, first compound 0.316 µM
# [16] = second compound 0.00949 µM, first compound 1 µM
# [17] = second compound 0.00949 µM, first compound 3.16 µM
# [18] = second compound 0.00949 µM, first compound 10 µM
# [19] = second compound 0.03 µM, first compound 0.0316 µM
# [20] = second compound 0.03 µM, first compound 0.1 µM
# [21] = second compound 0.03 µM, first compound 0.316 µM
# [22] = second compound 0.03 µM, first compound 1 µM
# [23] = second compound 0.03 µM, first compound 3.16 µM
# [24] = second compound 0.03 µM, first compound 10 µM
# [25] = second compound 0.0949 µM, first compound 0.0316 µM
# [26] = second compound 0.0949 µM, first compound 0.1 µM
# [27] = second compound 0.0949 µM, first compound 0.316 µM
# [28] = second compound 0.0949 µM, first compound 1 µM
# [29] = second compound 0.0949 µM, first compound 3.16 µM
# [30] = second compound 0.0949 µM, first compound 10 µM
# [31] = second compound 0.3 µM, first compound 0.0316 µM
# [32] = second compound 0.3 µM, first compound 0.1 µM
# [33] = second compound 0.3 µM, first compound 0.316 µM
# [34] = second compound 0.3 µM, first compound 1 µM
# [35] = second compound 0.3 µM, first compound 3.16 µM
# [36] = second compound 0.3 µM, first compound 10 µM
# 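Note: spheroids exposed to compound for seven days before viability readout.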
compound,measurement,setting,value
CC(=O)OC12COC1CC(O)C1(C)C(=O)C(O)C3=C(C)C(OC(=O)C(O)C(NC(=O)OC(C)(C)C)c4ccccc4)CC(O)(C(OC(=O)c4ccccc4)C21)C3(C)C (centres undefined) + CCn1c(-c2cc(N3CCN(C)CC3)cnc2C(C)OC)c2c3cc(ccc31)-c1csc(n1)CC(NC(=O)C1CC1C)C(=O)N1CCCC(N1)C(=O)OCC(C)(C)C2,IC50,second compound 0.000949 µM,< 0.0316 µM
same,IC50,second compound 0.003 µM,< 0.0316 µM
same,IC50,second compound 0.00949 µM,< 0.0316 µM
same,IC50,second compound 0.03 µM,< 0.0316 µM
same,IC50,second compound 0.0949 µM,< 0.0316 µM
same,IC50,second compound 0.3 µM,< 0.0316 µM
same,"viability, T/C",[1],12.3%
same,"viability, T/C",[2],12.4%
same,"viability, T/C",[3],14.2%
same,"viability, T/C",[4],13.5%
same,"viability, T/C",[5],17.1%
same,"viability, T/C",[6],19.4%
same,"viability, T/C",[7],14.3%
same,"viability, T/C",[8],11.3%
same,"viability, T/C",[9],13.8%
same,"viability, T/C",[10],13.4%
same,"viability, T/C",[11],15.2%
same,"viability, T/C",[12],22.9%
same,"viability, T/C",[13],14.9%
same,"viability, T/C",[14],16.2%
same,"viability, T/C",[15],13.8%
same,"viability, T/C",[16],16%
same,"viability, T/C",[17],18.8%
same,"viability, T/C",[18],17.1%
same,"viability, T/C",[19],14.4%
same,"viability, T/C",[20],12.8%
same,"viability, T/C",[21],15.9%
same,"viability, T/C",[22],18%
same,"viability, T/C",[23],18%
same,"viability, T/C",[24],19.1%
same,"viability, T/C",[25],11.5%
same,"viability, T/C",[26],14.2%
same,"viability, T/C",[27],14.5%
same,"viability, T/C",[28],14.3%
same,"viability, T/C",[29],17.3%
same,"viability, T/C",[30],18%
same,"viability, T/C",[31],15.2%
same,"viability, T/C",[32],12.8%
same,"viability, T/C",[33],17.8%
same,"viability, T/C",[34],16.8%
same,"viability, T/C",[35],21.4%
same,"viability, T/C",[36],18.4%
Cc1nc(N2CCC3(CC2)COC(C)C3N)c(CO)nc1Sc1ccnc(N)c1Cl (centres undefined) + CCn1c(-c2cccnc2C(C)OC)c2c3cc(ccc31)N1CCOC(CC(NC(=O)C(C(C)C)N(C)C(=O)C3(F)CCN(C(=O)C#CC(C)(C)N(C)C)CC3)C(=O)N3CCCC(N3)C(=O)OCC(C)(C)C2)C1,IC50,second compound 0.000949 µM,> 10 µM
same,IC50,second compound 0.003 µM,> 10 µM
same,IC50,second compound 0.00949 µM,> 10 µM
same,IC50,second compound 0.03 µM,> 10 µM
same,IC50,second compound 0.0949 µM,> 10 µM
same,IC50,second compound 0.3 µM,> 10 µM
same,"viability, T/C",[1],97.9%
same,"viability, T/C",[2],86.4%
same,"viability, T/C",[3],102%
same,"viability, T/C",[4],103%
same,"viability, T/C",[5],101%
same,"viability, T/C",[6],89.5%
same,"viability, T/C",[7],102%
same,"viability, T/C",[8],91.9%
same,"viability, T/C",[9],119%
same,"viability, T/C",[10],96.7%
same,"viability, T/C",[11],97.1%
same,"viability, T/C",[12],108%
same,"viability, T/C",[13],103%
same,"viability, T/C",[14],106%
same,"viability, T/C",[15],106%
same,"viability, T/C",[16],99.8%
same,"viability, T/C",[17],118%
same,"viability, T/C",[18],90.5%
same,"viability, T/C",[19],119%
same,"viability, T/C",[20],107%
same,"viability, T/C",[21],99.3%
same,"viability, T/C",[22],110%
same,"viability, T/C",[23],115%
same,"viability, T/C",[24],91.5%
same,"viability, T/C",[25],98.5%
same,"viability, T/C",[26],98.9%
same,"viability, T/C",[27],105%
same,"viability, T/C",[28],87.9%
same,"viability, T/C",[29],101%
same,"viability, T/C",[30],100%
same,"viability, T/C",[31],83.7%
same,"viability, T/C",[32],89.3%
same,"viability, T/C",[33],100%
same,"viability, T/C",[34],87.8%
same,"viability, T/C",[35],101%
same,"viability, T/C",[36],77.4%
